Assay [1] is filed under the species Rattus norvegicus. The experiment in a line: Compound was evaluated for the displacement of [3H]gallopamil from specific binding sites on rat myocardial membrane particulates. To be noted: Myocardium. For orientation: In a radioligand displacement assay an active substance lowers the binding of a labelled ligand.
For assay [2], the species on record is Rattus norvegicus. Briefly: Compound was evaluated for the concentration dependent negative ionotropic effect in rat right myocardial ventricular strips. The format is functional. To be noted: Cardiac ventricle.

Molecules are shown by their SMILES.

By IC50 is commonly meant the concentration at which inhibition is half-maximal. A higher IC50 goes with lower potency. In general, EC50 refers to the concentration at which the effect is half-maximal. A higher EC50 goes with weaker potency. As to `COc1ccc(CCN(C)CCCC(C#N)(c2ccc(OC)c(OC)c2)C(C)C)cc1OC` (stereo unspecified) [VERAPAMIL], in the assay filed under Rattus norvegicus [1], the concentration for half-maximal inhibition (IC50) amounted to 362 nM. This molecule also registered an EC50 in the assay listed under Rattus norvegicus [2] of 2510 nM.
For `COc1ccc(CCN(C)CCCC(C#N)(c2cc(OC)c(OC)c(OC)c2)C(C)C)cc1OC` (stereo unspecified) [GALLOPAMIL], the IC50 in the assay filed under Rattus norvegicus [1] turned out to be 16 nM. This molecule displayed an EC50 in the assay filed under Rattus norvegicus [2] of 1950 nM.
As to `COc1ccc(CCN(C)CCCC(CN=C=S)(c2ccc(OC)c(OC)c2)C(C)C)cc1OC` (stereo unspecified), in the assay filed under Rattus norvegicus [1], the IC50 was 342 nM. In the assay filed under Rattus norvegicus [2], this molecule returned an EC50 of 4560 nM.

(Values after ChEMBL document CHEMBL1123536, “Studies on Ca2+ channel antagonists. 5-[(3,4-Dimethoxyphenethyl)methylamino]-2-(3,4-dimethoxyphenyl)-2- isopropylpentyl isothiocyanate, a chemoaffinity ligand derived from verapamil” (J Med Chem, 1986).)
